Experimental data: patent US20200138921A1, “METHODS OF PREVENTING AND TREATING DISEASES CHARACTERIZED BY SYNAPTIC DYSFUNCTION AND NEURODEGENERATION INCLUDING ALZHEIMER'S DISEASE” (The Trustees of Columbia University in the City of New York, priority 2017, published 2020)

Tests used:
Type in all cases: cell-based, rat
Ube3A [1] = test: Immunoprecipitation of HA-Ube3A and phospho-tyrosine immunoblot in B35 cells; conditions: B35 cells pre-treated with STI-571 for 1 hour prior to oAβ
Experimental: (§1) Hippocampal neuron cultures from both male and female rat embryos (E17-18) were prepared following a slightly modified version of the method of Brewer et al. 1996. Hippocampal neurons were kept in culture at 37° C. with 5% CO2 in Neurobasal medium (ThermoFisher) with B27 (ThermoFisher) supplement and Glutamax (ThermoFisher) and plated at a density of 2.5×10^5 cell/ml on dishes coated with poly-D-lysine (ThermoFisher). For the experiments, neurons were used after 14-21 days in vitro (DIV). Rat neuroblastoma B35 cells were cultured and maintained in DMEM (ThermoFisher) supplemented with 10% fetal bovine serum (FBS; Invitrogen) and Glutamax (ThermoFisher).
Cells were collected and homogenized with IP lysis buffer (ThermoFisher) supplemented with Halt protease and phosphatase inhibitor (ThermoFisher). Cell extracts were incubated overnight at 4° C. with 1.0 μg HA antibody (Cell Signaling) or mouse IgG (Cell Signaling) as a negative control Immunocomplexes were incubated with magnetic beads covalently coated with protein G (Invitrogen) on a rotator for 2 hours, at 4° C. The beads were then pelleted with a magnet and washed 3 times with 1× cell lysis buffer (Cell Signaling) supplemented with complete mini protease inhibitor mixture (Roche). The immunocomplexes were resuspended in cell lysis buffer, LDS-sample buffer (Invitrogen), […] dithiothreitol (DTT), and analyzed by Western blotting. […]

Ube3A [2] = test: Ube3A protein degradation in B35 cells (cycloheximide chase); conditions: pre-treatment with STI
Experimental: FIG. 5A is a graph showing the quantification of Western blots of the levels of Ube3A and GAPDH (as house-keeping protein) of B35 cells treated with cycloheximide (CHX) or CHX and oAβ for 4, 8 and 16 hours. […] Graphs represent mean values and standard deviation. Significance determined by one-way ANOVA followed by Tukey Post Hoc multiple comparisons.

Ephexin-5 = test: Western blot of Ephexin-5 in cultured primary hippocampal neurons; conditions: hippocampal neurons, Penetratin-1-linked siRNA for 24 hours
Experimental: as §1
Whole frozen mouse hippocampi, human brain specimens, and cultured cells were homogenized in RIPA buffer (ThermoFisher) supplemented with protease and phosphatase inhibitor cocktail (ThermoFisher), using a Teflon dounce homogenizer and centrifuged at 14,000 rpm for 10 minutes at 4° C. Supernatants were collected, normalized by BCA assay (ThermoFisher), and prepared for loading using sample buffer (SB) 4× (ThermoFisher) and dithiothreitol (DTT) 10× (ThermoFisher).
Cultured primary hippocampal neurons (14 DIV) were treated with 300 nM of a topoisomerase type I inhibitor, topotecan (TOP) or a vehicle control as described in Huang et al. 2012. Some cells were treated for 24 hours and some for 72 hours. All cells were harvested and whole cell lysates prepared for Western blot analysis of Ube3A and Ephixin-5.

RhoA-GTP = test: Rho-GTPase activity pull-down assay in hippocampal neurons; conditions: siRNA 24 hours prior to oAβ for 8 hours
Experimental: Rho-GTPase pull-down assays were performed following the manufacturer's protocol (Cytoskeleton, Inc.). Briefly, cells were washed once with ice-cold PBS and lysed with RIPA/M-PER buffer (1:1; ThermoFisher). Lysates were incubated on ice for 5 minutes, and centrifuged (12,000 g) for 5 minutes. 30 μl was used for input and the remaining lysates were incubated with Rhotekin-RBD (RhoA) or PAK-RBD (Rac1) protein beads (25 μl) by rotating for 1 hour at 4° C. Beads were washed with ice-cold PBS (500 μl, 3×) and collected, and bound proteins were eluted with 1× sample buffer (30 μl). Input and eluted samples were then analyzed by gel electrophoresis and Western blotting using either a RhoA or Rac1-specific antibody.
To test whether increasing Ube3A could rescue the effects of oAβ, cultured primary hippocampal neurons (14 DIV) were pretreated with 300 nM of TOP or control PBS. At day 3 the cells were treated with oligomeric Aβ for 6 hours and whole cell lysates prepared for Western blot analysis of Ube3A protein levels and levels of active GTPase levels including RhoA-GTP, Rac1-GTP and Cdc42-GTP.

[3] = system: primary hippocampal neurons; test: Dendritic spine density in cultured hippocampal neurons (DiOlistic labeling); conditions: siRNA pre-treatment, oAβ 24 hours
Experimental: The protocol for diolistic labeling of neurons was adapted from Gan et al. 2000 and Gan et al. 2009. Briefly, 100 mg of tungsten particles (1.1 μm diameter; Bio-Rad) were thoroughly precipitated with 5.0 mg of lipophilic dye (DiI; ThermoFisher) and dissolved in 100 μl of methylene chloride. Dye-coated particles were shot 2-3 times into the cells using the Helios gene gun system (Bio-Rad) and left in 0.1 M PBS overnight to allow dye diffusion along neuronal processes. Cells were post-fixed with 4% paraformaldehyde (Pierce) for 1 hour to preserve staining, then mounted onto glass slides using Gel Mount (Biomeda) and stored at 4° C. in the dark.
Labeled neurons were imaged using the Laser Scanning Microscope (LSM) 510 Meta confocal microscope (Zeiss), equipped with 40×1.3 NA and 100×1.4 NA oil-immersion objectives. The NIH Image software program ImageJ was used the quantify diolistic-labeled cultured neurons. An average of 12 compressed images (20 μm thick) consisting of pyramidal neurons were quantified for each treatment. Spines were counted with NeuronStudio software in a blinded manner and spine density was represented in number of spine per μm dendritic length. Statistical analysis was performed using the statistics package GraphPad Prism.
To further test whether increasing Ube3A could rescue the effects of oAβ, cultured primary hippocampal neurons (14 DIV) were pretreated with 300 nM of TOP or control PBS. The neurons were then treated with oAβ for 24 hours, and whole cell lysates prepared for Western blot analysis, or fixed for microscopy.

| Compound | Ube3A phosphorylation by oAβ (Ube3A [1]) | oAβ-induced decrease in Ube3A protein (Ube3A [2]) | levels of Ephexin-5 (Ephexin-5) | oAβ-induced upregulation of RhoA activity (RhoA-GTP) | loss of dendritic spine in neurons treated with oAβ [3] |
| --- | --- | --- | --- | --- | --- |
| Cc1ccc(NC(=O)c2ccc(CN3CCN(C)CC3)cc2)cc1Nc1nccc(-c2cccnc2)n1 [STI-571] | complete abolishment | completely blocked |  |  |  |
| Penetratin-1-linked siRNA: Ephexin-5 siRNA (SEQ ID NO: 1 and 2) cross-linked via a Cys-Cys bond to the delivery peptide Penetratin-1 (chain 1 GUCCUUUCUCCGUGUAUGUUU; chain 2 ACAUACACGGAGAAAGGACUU; Penetratin-1 peptide attached via Cys-Cys disulfide, further chemistry not given here) |  |  | depleted | completely blocked | completely rescued |
